Reference: patent US20230203060A1 (GENFLEET THERAPEUTICS (SHANGHAI) INC., priority 2020, published 2023)
Where a name gives a salt, the structure may show the parent alone.

Test system: KRAS G12C mutant NCI-H358 cells
Assay: Cell proliferation inhibition experiment, 3D spheroid, CellTiter-Glo, NCI-H358
Format: cell-based, human
Settings: Homo sapiens, NCI-H358, 120 h, NCI-H358 (KRAS G12C mutant) 3D spheroid, 5 days with compound, CellTiter-Glo; read-out: H358 IC50
From the text: Raw materials and instruments: NCI-H358 purchased from ATCC; article number: CRL-5807; batch number: 70010825; A549 purchased from ATCC; article number: CCL-185; batch number: 70007820; RPMI1640 purchased from Gibco; article number: 11875-093; batch number: 2152748; F-12K purchased from Gibco; article number: 21127-022; batch number: 2185853; FBS purchased from Gibco; article number: 10099-141; batch number: 2109290CP; PS purchased from Gibco; article number: 15140-122; batch number: 2145451; Trypsin-EDTApurchased from Gibco; article number: 25200-072; batch number: 2085552; CellTiter Glo working solution purchased from Promega; article number: G9683; batch number: 398478; DMSO purchased from VWR AMRESCO; article number: 0231-500ML; batch number: 18C0656168; 384-well spheroid plate purchased from Corning; article number: 3830; batch number: 27519032; white opaque 384-well plate purchased from Corning; article number: 3570; batch number: 26819023; microplate reader purchased from PerkinElmer; model: Envision MLD2105-0020; equipment number 1050369.
NCI-H358 is a KRAS G12C mutant human non-small cell lung cancer cell line, cultured in 10% FBS RPMI-1640+1% PS culture medium; and A549 is a KRAS G12S mutant human lung adenocarcinoma cell line, cultured in 10% FBS F-12K+1% PS culture medium. Cells at logarithmic growth stage were taken, digested with trypsin-EDTA, then collected and counted. H358 was adjusted to 1.8 E4 cells/mL with 2% FBS RPMI-1640 culture medium, and A549 was adjusted to 8.9 E3 cells/mL with 2% FBS F-12K culture medium; 800 (45 μL) H358 or 400 (45 μL) A549 were inoculated respectively in a 384-well spheroid plate and cultured overnight to establish a 3D cell model. A 3.16-fold gradient concentration stock solution of 1000× compound was prepared with DMSO, and diluted 100-fold to 10× compound stock solution with 2% FBS culture medium. On the second day after cell inoculation, 5 μL of 10× compound stock solution was added to each cell culture well, with a final concentration of 1× and a DMSO content of 0.1%. DMSO was used as experimental control (control), and 2% FBS culture medium was used as blank control (blank). After 5 days of compound cell culture, 25 μL of CellTiter-Glo working solution was added to each well, mixed well at 400 rpm and incubated for 30 minutes. After standing at room temperature for 30 minutes, 40 μL of the mixed solution was transferred to a white opaque 384-well plate, and the luminescence chemiluminescence value was read with a microplate reader. The cell proliferation inhibition rate IR (%)=(RLU control -RLU compound)/(RLU control -RLU blank) x100% was calculated. The gradient dilution concentration of the compound and the corresponding cell proliferation inhibition rate were fitted by Prism 6 four-parameter method, and the IC50 value was calculated. The inhibitory activity of the compounds prepared in the above embodiments of the present disclosure on KRAS G12C mutant NCI-H358 cells was 0.0001 μM to 0.5 μM; the inhibitory activity of some compounds on KRAS G12C mutant NCI-H358 cells was 0.001 μM to 0.1 μM or 0.001 μM to 0.05 μM.

Row | Structure (SMILES) | IC50 [nM]
1 | C=CC(=O)N1CCN2C(=O)c3c(N4CCOCC4)nc(-c4c(O)cccc4F)c(F)c3OC[C@H]2C1 [Z329, (6aR)-8-acryloyl-1-(morpholino)-4-fluoro-3-(2-fluoro-6-hydroxyphenyl)-6,6a,7,8,9,10-hexahydro-12H-pyrazino[2,1-c]pyrido[3,4-f][1,4]oxazepin-12-one] | 137
2 | C=CC(=O)N1CCN2C(=O)c3c(N4C[C@H](C)O[C@@H](C)C4)nc(-c4c(O)cccc4F)c(Cl)c3OC[C@H]2C1 [Z248-1, (6aR)-8-acryloyl-1-((2S,6S)-2,6-dimethylmorpholino)-4-chloro-3-(2-fluoro-6-hydroxyphenyl)-6,6a,7,8,9,10-hexahydro-12H-pyrazino[2,1-c]pyrido[3,4-f][1,4]oxazepin-12-one] | 234
3 | C=CC(=O)N1CCN2C(=O)c3c(N4CCN(C5COC5)C[C@H]4C)nc(-c4c(O)cccc4F)c(Cl)c3OC[C@H]2C1 (single isomer, unassigned) [Z239-2] | 55.8
4 | C=CC(=O)N1CCN2C(=O)c3c(N4Cc5nn(C)cc5[C@H]4C)nc(-c4c(O)cccc4F)c(Cl)c3OC[C@H]2C1 (single isomer, unassigned) [Z345-1] | 45.2
5 | C=CC(=O)N1CCN2C(=O)c3c(N4C[C@@H](C)N(C)[C@@H](C)C4)nc(-c4c(O)cccc4F)c(Cl)c3OC[C@H]2C1 [Z246, (6aR)-8-acryloyl-4-chloro-3-(2-fluoro-6-hydroxyphenyl)-1-((3S,5R)-3,4,5-trimethylpiperazin-1-yl)-6,6a,7,8,9,10-hexahydro-12H-pyrazino[2,1-c]pyrido[3,4-f][1,4]oxazepin-12-one] | 35
6 | C=CC(=O)N1CCN2C(=O)c3c(N4CCC[C@]4(C)CO)nc(-c4c(O)cccc4F)c(Cl)c3OC[C@H]2C1 [Z279-1] | 185
7 | C=CC(=O)N1CCN2C(=O)c3c(N4CCOCC45CCC5)nc(-c4c(O)cccc4F)c(Cl)c3OC[C@H]2C1 [Z90, (6aR)-8-acryloyl-4-chloro-3-(2-fluoro-6-hydroxyphenyl)-1-(8-oxa-5-azaspiro[3.5]nonan-5-yl)-6,6a,7,8,9,10-hexahydro-12H-pyrazino[2,1-c]pyrido[3,4-f][1,4]oxazepin-12-one] | 19
8 | C=CC(=O)N1CCN2C(=O)c3c(N4CCC45CCC5)nc(-c4c(O)cccc4F)c(Cl)c3OC[C@H]2C1 [Z309, (6aR)-8-acryloyl-4-chloro-3-(2-fluoro-6-hydroxyphenyl)-1-(1-azaspiro[3.3]heptan-1-yl)-6,6a,7,8,9,10-hexahydro-12H-pyrazino[2,1-c]pyrido[3,4-f][1,4]oxazepin-12-one] | 291
9 | C=CC(=O)N1CCN2C(=O)c3c(N4Cc5cnn(C)c5[C@@H]4C)nc(-c4c(O)cccc4F)c(Cl)c3OC[C@H]2C1 (single isomer, unassigned) [Z292S, trifluoroacetate] | 37.3
10 | C=CC(=O)N1CCN2C(=O)c3c(N4C[C@H](O)CC4(C)C)nc(-c4c(O)cccc4F)c(F)c3OC[C@H]2C1 (single isomer, unassigned) [Z256-2] | 27
11 | C=CC(=O)N1CCN2C(=O)c3c(OCC4N(C)CCC4(C)C)nc(-c4c(O)cccc4F)c(Cl)c3OC[C@H]2C1 (stereo partly drawn) [Z110, (6aR)-8-acryloyl-4-chloro-1-((1,3,3-trimethyltetrahydropyrrol-2-yl)methoxy)-3-(2-fluoro-6-hydroxyphenyl)-6,6a,7,8,9,10-hexahydro-12H-pyrazino[2,1-c]pyrido[3,4-f][1,4]oxazepin-12-one] | 44.9
12 | C=CC(=O)N1CCN2C(=O)c3c(cc(-c4c(O)cccc4F)nc3N3CCOC(C)(C)C3)OC[C@H]2C1 [Z263, (6aR)-8-acryloyl-1-(2,2-dimethylmorpholino)-3-(2-fluoro-6-hydroxyphenyl)-6,6a,7,8,9,10-hexahydro-12H-pyrazino[2,1-c]pyrido[3,4-f][1,4]oxazepin-12-one] | 69
13 | C=CC(=O)N1CCN2C(=O)c3c(N4CCOC(C)(C)C4)nc(-c4c(C)ccc5[nH]ncc45)c(F)c3OC[C@H]2C1 [Z238, (6aR)-8-acryloyl-1-(2,2-dimethylmorpholino)-4-fluoro-3-(5-methyl-1H-indazol-4-yl)-6,6a,7,8,9,10-hexahydro-12H-pyrazino[2,1-c]pyrido[3,4-f][1,4]oxazepin-12-one] | 285
14 | C=CC(=O)N1CCN2C(=O)c3c(N4CCOCC4)nc(-c4nc(N)ccc4C(F)(F)F)c(Cl)c3OC[C@H]2C1 [Z267] | 31.3
15 | C=CC(=O)N1CCN2C(=O)c3c(N4C(C)COCC4C)nc(-c4c(O)cccc4F)c(Cl)c3OC[C@H]2C1 (stereo partly drawn) [Z252, (6aR)-8-acryloyl-1-(3,5-dimethylmorpholino)-4-chloro-3-(2-fluoro-6-hydroxyphenyl)-6,6a,7,8,9,10-hexahydro-12H-pyrazino[2,1-c]pyrido[3,4-f][1,4]oxazepin-12-one] | 128
16 | C=CC(=O)N1CCN2C(=O)c3c(N4CCN5CCC[C@H]5C4)nc(-c4c(O)cccc4F)c(Cl)c3OC[C@H]2C1 [Z317-1, (6aR)-8-acryloyl-4-chloro-3-(2-fluoro-6-hydroxyphenyl)-1-((S)-hexahydropyrrolo[1,2-a]pyrazin-2(1H)-yl)-6,6a,7,8,9,10-hexahydro-12H-pyrazino[2,1-c]pyrido[3,4-f][1,4]oxazepin-12-one] | 54.1
17 | C=CC(=O)N1CCN2C(=O)c3c(C4=CCN(C)CC4C)nc(-c4c(O)cccc4F)c(Cl)c3OC[C@H]2C1 (stereo partly drawn) [Z304, (6aR)-8-acryloyl-4-chloro-1-(1,3-dimethyl-1,2,3,6-tetrahydropyridin-4-yl)-3-(2-fluoro-6-hydroxyphenyl)-6,6a,7,8,9,10-hexahydro-12H-pyrazino[2,1-c]pyrido[3,4-f]oxazepin-12-one] | 161
18 | C=CC(=O)N1CCN2C(=O)c3c(N4CCCC(C)C4C)nc(-c4c(O)cccc4F)c(Cl)c3OC[C@H]2C1 (stereo partly drawn) [Z99, (6aR)-8-acryloyl-4-chloro-1-(2,3-dimethylpiperidin-1-yl)-3-(2-fluoro-6-hydroxyphenyl)-6,6a,7,8,9,10-hexahydro-12H-pyrazino[2,1-c]pyrido[3,4-f][1,4]oxazepin-12-one] | 26.3
19 | C=CC(=O)N1CCN2C(=O)C3=C(OC[C@H]2C1)C(C)=C(c1c(O)cccc1F)CN3N1C[C@@H](O)CC1(C)C (single isomer, unassigned) [Z336-1] | 43
20 | C=CC(=O)N1CCN2C(=O)c3c(N4[C@H](C)COC[C@@H]4C)nc(-c4c(O)cccc4F)c(Cl)c3OC[C@H]2C1 [Z252-1, (6aR)-8-acryloyl-1-(3R,5S-dimethylmorpholino)-4-chloro-3-(2-fluoro-6-hydroxyphenyl)-6,6a,7,8,9, 10-hexahydro-12H-pyrazino[2,1-c]pyrido[3,4-f][1,4]oxazepin-12-one] | 144
21 | C=CC(=O)N1CCN2C(=O)c3c(N4CCOC(C)(C)C4)nc(-c4c(O)cccc4F)c(F)c3OC[C@H]2C1 [Z255, (6aR)-8-acryloyl-1-(2,2-dimethylmorpholino)-4-fluoro-3-(2-fluoro-6-hydroxyphenyl)-6,6a,7,8,9,10-hexahydro-12H-pyrazino[2,1-c]pyrido[3,4-f][1,4]oxazepin-12-one] | 32
